Source: patent US9999650B2, “Peptide and peptidomimetic inhibitors” (Ra Pharmaceuticals, Inc., priority 2012, dated 2018)
Where two headings read alike, the source gives them in different places. Numbered stars: 1 amine (or outer) side, 2 acyl side, 3 side chain; on linkers, the order of the positions; unused ones are H or OH. Bridge positions count the residues as written; N and C are the ends. Square brackets hold non-standard residues; d marks the D form. Peptide text beside a SMILES is read from it. * marks the point of attachment. mXylylene = c1cc(C[*:1])cc(C[*:2])c1; Phg = N[C@H](C(=O)O)c1ccccc1; Tle = CC(C)(C)[C@H](N)C(=O)O; NMeS = CN[C@@H](CO)C(=O)O; Heptanoyl = CCCCCCC(=O)*; Nva = CCC[C@H](N)C(=O)O; Mpa = O=C(O)CCS

What was measured:
Format in all cases: biochemical
[1] = molecular target: T1, human plasma kallikrein (Homo sapiens, UniProt P03952); assay: Enzyme inhibition assay (fluorogenic substrate H-Pro-Phe-Arg-AMC)
T1 construct: purchased Enzyme Research Laboratories HPKa 1303
Method in brief: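 IC50 was determined from AMC fluorescence (ex 360/em 460 nm) after 1 h of reaction at room temperature with 500 μM final substrate. Before this, peptides in ten 8-fold serial dilutions were incubated 5 min with 1 nM final activated kallikrein. The buffer was Tris-HCl pH 7.2 containing NaCl, CaCl2 and Brij-35.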

[2] = molecular target: T2, Factor VIIa (Homo sapiens, UniProt P08709); assay: Inhibitor specificity IC50 assay, Factor VIIa (Boc-Val-Pro-Arg-AMC); conditions: substrate Boc-Val-Pro-Arg-AMC
T2 construct: Factor VIIa (Enzyme Research Laboratories, South Bend, Ind.); purchased Enzyme Research Laboratories
T2 sequence (P08709 61-212 limits assumed): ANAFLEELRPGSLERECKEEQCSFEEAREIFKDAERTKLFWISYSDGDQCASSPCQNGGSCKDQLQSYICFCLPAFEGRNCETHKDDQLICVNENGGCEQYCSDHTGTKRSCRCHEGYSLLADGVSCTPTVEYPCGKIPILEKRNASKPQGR
T2 sequence (P08709 213-466 limits assumed): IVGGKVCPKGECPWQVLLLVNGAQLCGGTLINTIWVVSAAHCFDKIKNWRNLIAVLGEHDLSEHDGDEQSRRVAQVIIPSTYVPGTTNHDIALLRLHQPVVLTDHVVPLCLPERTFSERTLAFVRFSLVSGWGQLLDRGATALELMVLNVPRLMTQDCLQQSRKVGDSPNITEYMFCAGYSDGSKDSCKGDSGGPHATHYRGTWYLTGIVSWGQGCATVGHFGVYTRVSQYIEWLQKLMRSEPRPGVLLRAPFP
Procedure: (§1) Ten 8-fold serial dilutions of peptides (10 mM DMSO stocks) were performed in DMSO and then added to TCNB (50 mM Tris-HCl pH 7.2, 150 mM NaCl, 10 mM CaCl2, 0.05% Brij-35) and sonicated. 50 μL of the peptide dilutions were added to microtitre plates (96 well, black non-binding surface, Corning, 3650) and incubated for 5 minutes at room temperature with 4 nM activated human kallikrein (final concentration after addition of fluorogenic substrate: 1 nM). The samples were then incubated for 1 hour at room temperature with 2 mM H-Pro-Phe-Arg-AMC (final concentration 500 μM). Relative Fluorescence Units (RFU) were measured at excitation/emission 360 nm/460 nm by a SpectraMax M3.
(§2) To determine the specificity of peptide inhibitors, an IC50 assay, as described in Example 4, was performed on a variety of serine proteases related to human plasma kallikrein. The enzymes tested include mouse plasma kallikrein (R&D Systems, Minneapolis, Minn.), and the human enzymes Factor VIIa (Enzyme Research Laboratories, South Bend, Ind.), Factor Xa (Enzyme Research Laboratories, South Bend, Ind.), Factor XIa (Enzyme Research Laboratories, South Bend, Ind.), Factor XIIa (Enzyme Research Laboratories, South Bend, Ind.), tissue kallikrein KLK13 (R&D Systems, Minneapolis, Minn.), thrombin (Enzyme Research Laboratories, South Bend, Ind.) and plasmin (Enzyme Research Laboratories, South Bend, Ind.).
(§3) Each enzyme was tested with the following specific fluorgenic substrates (available from Bachem; Torrance, Calif.): mouse plasma kallikrein (Pro-Phe-Arg-AMC), Factor VIIa (Boc-Val-Pro-Arg-AMC), Factor Xa (Boc-Gln-Gly-Arg-AMC), Factor XIa (Boc-Gln-Gly-Arg-AMC), Factor XIIa (Boc-Gln-Gly-Arg-AMC), KLK13 (Boc-Val-Pro-Arg-AMC), thrombin (Boc-Val-Pro-Arg-AMC) and plasmin (Boc-Val-Leu-Lys-AMC). Peptide inhibitors R2006, R2010, R2012, R2019, R2023, R2030, R2036, R2041, R2047, R2104 and R2051 were assayed.

[3] = molecular target: T3, Factor Xa (Homo sapiens, UniProt P00742); assay: Inhibitor specificity IC50 assay, Factor Xa (Boc-Gln-Gly-Arg-AMC); conditions: substrate Boc-Gln-Gly-Arg-AMC
T3 construct: Factor Xa (Enzyme Research Laboratories, South Bend, Ind.); purchased Enzyme Research Laboratories
Procedure: (§4) Activated human plasma kallikrein (Enzyme Research Laboratories, HPKa 1303) was reacted with H-Pro-Phe-Arg-7-amido-4-methylcoumarin (H-Pro-Pre-Arg-AMC) (a fluorogenic substrate for plasma as well as pancreatic and urinary kallikreins; Bachem I-1295) and candidate inhibitory peptides to determine the IC50 of the inhibitor.
as §1, §2, §3

[4] = molecular target: T4, Factor XIa (Homo sapiens, UniProt P03951); assay: Inhibitor specificity IC50 assay, Factor XIa (Boc-Gln-Gly-Arg-AMC); conditions: substrate Boc-Gln-Gly-Arg-AMC
T4 construct: Factor XIa (Enzyme Research Laboratories, South Bend, Ind.); purchased Enzyme Research Laboratories
Procedure: as §4, §1, §2, §3

[5] = molecular target: T5, Factor XIIa (Homo sapiens, UniProt P00748); assay: Inhibitor specificity IC50 assay, Factor XIIa (Boc-Gln-Gly-Arg-AMC); conditions: substrate Boc-Gln-Gly-Arg-AMC
T5 construct: Factor XIIa (Enzyme Research Laboratories, South Bend, Ind.); purchased Enzyme Research Laboratories
T5 sequence (P00748 373-615 limits assumed): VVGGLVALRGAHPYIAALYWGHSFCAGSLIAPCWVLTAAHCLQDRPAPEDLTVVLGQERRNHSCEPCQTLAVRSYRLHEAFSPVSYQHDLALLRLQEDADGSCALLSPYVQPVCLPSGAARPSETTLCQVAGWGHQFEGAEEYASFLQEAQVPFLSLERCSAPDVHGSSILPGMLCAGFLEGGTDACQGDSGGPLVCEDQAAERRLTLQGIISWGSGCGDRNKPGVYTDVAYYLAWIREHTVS
Procedure: as §4, §1, §2, §3

[6] = molecular target: T6, tissue kallikrein KLK13 (Homo sapiens, UniProt Q9UKR3); assay: Inhibitor specificity IC50 assay, KLK13 (Boc-Val-Pro-Arg-AMC); conditions: substrate Boc-Val-Pro-Arg-AMC
T6 construct: purchased R&D Systems
T6 sequence (Q9UKR3 17-277): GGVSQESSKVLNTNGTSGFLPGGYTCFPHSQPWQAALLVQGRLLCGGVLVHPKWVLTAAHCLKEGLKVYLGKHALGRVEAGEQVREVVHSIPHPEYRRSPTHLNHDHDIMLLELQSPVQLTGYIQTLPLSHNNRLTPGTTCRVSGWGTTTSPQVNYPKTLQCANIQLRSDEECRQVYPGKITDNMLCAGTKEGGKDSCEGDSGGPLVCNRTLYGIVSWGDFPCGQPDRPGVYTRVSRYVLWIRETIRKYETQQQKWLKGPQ
Procedure: as §4, §1, §2, §3

[7] = molecular target: T7, thrombin (Homo sapiens, UniProt P00734); assay: Inhibitor specificity IC50 assay, thrombin (Boc-Val-Pro-Arg-AMC); conditions: substrate Boc-Val-Pro-Arg-AMC
T7 construct: thrombin (Enzyme Research Laboratories, South Bend, Ind.); purchased Enzyme Research Laboratories
Procedure: as §4, §1, §2, §3

[8] = molecular target: T8, plasmin (Homo sapiens, UniProt P00747); assay: Inhibitor specificity IC50 assay, plasmin (Boc-Val-Leu-Lys-AMC); conditions: substrate Boc-Val-Leu-Lys-AMC
T8 construct: plasmin (Enzyme Research Laboratories, South Bend, Ind.); purchased Enzyme Research Laboratories
Procedure: as §4, §1, §2, §3

[9] = Kallikrein inhibitory activity, 1 nM activated human kallikrein, 500 μM H-Pro-Phe-Arg-AMC, 1 hour room temperature, read-out: Avg. IC50

T3 sequence (P00742 41-179 limits assumed): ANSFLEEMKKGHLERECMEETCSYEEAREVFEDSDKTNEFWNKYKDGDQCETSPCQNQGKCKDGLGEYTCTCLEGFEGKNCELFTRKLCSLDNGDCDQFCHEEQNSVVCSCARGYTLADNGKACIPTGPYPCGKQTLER
T3 sequence (P00742 235-488 limits assumed): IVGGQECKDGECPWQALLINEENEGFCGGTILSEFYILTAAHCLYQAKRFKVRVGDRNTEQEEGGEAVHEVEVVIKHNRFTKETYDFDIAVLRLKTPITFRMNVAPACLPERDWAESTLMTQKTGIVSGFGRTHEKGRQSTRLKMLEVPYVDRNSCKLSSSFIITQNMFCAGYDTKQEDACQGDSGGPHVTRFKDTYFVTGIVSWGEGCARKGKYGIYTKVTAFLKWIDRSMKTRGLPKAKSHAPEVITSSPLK
T8 sequence (P00747 97-580 limits assumed): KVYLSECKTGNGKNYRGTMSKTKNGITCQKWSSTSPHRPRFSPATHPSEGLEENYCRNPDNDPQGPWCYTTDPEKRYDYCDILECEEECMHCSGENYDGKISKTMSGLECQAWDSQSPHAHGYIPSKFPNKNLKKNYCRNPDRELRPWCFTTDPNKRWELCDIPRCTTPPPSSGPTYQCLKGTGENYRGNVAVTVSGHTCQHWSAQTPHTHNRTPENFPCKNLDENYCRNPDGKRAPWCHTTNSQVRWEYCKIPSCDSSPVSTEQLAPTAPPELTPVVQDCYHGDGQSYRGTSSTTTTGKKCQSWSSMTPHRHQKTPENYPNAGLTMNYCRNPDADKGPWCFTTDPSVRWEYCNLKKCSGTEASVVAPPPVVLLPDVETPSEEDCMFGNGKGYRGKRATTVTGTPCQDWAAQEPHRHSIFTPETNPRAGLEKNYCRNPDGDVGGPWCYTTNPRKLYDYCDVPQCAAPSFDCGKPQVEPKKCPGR
T8 sequence (P00747 581-810 limits assumed): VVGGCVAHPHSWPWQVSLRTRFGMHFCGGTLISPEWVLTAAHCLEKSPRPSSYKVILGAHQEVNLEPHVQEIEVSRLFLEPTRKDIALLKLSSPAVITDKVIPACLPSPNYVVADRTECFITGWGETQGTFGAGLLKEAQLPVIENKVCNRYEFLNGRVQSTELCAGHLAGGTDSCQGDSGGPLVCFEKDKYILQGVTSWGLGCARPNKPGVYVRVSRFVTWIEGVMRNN
T1 sequence (P03952 20-390 limits assumed): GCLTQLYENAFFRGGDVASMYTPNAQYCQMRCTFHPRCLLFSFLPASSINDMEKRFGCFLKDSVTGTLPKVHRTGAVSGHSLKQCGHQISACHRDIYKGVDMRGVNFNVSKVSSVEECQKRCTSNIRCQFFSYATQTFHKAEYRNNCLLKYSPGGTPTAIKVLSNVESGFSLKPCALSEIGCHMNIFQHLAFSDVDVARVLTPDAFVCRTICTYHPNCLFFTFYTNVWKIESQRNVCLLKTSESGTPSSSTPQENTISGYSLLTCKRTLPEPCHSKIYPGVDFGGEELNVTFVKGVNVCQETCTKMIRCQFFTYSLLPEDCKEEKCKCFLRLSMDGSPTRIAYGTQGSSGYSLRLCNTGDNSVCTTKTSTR
T1 sequence (P03952 391-638 limits assumed): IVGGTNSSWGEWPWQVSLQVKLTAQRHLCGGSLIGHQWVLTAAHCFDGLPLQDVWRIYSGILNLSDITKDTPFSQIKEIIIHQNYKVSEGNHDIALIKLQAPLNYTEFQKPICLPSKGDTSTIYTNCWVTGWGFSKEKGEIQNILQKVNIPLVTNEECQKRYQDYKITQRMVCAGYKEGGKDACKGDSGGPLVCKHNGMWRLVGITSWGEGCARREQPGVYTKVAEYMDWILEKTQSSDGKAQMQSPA
T4 sequence (P03951 19-387 limits assumed): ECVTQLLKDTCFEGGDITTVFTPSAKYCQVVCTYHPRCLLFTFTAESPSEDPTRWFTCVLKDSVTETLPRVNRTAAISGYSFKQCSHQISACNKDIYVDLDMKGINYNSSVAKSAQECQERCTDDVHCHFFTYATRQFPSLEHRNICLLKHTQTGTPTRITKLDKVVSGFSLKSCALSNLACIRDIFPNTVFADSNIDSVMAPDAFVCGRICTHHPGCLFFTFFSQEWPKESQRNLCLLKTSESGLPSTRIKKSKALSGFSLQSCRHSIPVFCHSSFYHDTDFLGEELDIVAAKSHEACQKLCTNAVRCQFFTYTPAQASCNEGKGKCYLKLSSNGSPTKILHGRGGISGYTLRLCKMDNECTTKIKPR
T4 sequence (P03951 388-625 limits assumed): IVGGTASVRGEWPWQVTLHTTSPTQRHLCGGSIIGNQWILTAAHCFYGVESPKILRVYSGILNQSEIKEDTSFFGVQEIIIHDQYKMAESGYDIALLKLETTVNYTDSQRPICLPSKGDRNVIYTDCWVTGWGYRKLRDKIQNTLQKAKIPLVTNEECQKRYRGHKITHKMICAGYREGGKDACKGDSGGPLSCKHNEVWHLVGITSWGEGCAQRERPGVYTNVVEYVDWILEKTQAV

| IC50 [1, 9] | IC50 [2] | IC50 [3] | IC50 [4] | IC50 [5] | IC50 [6] | IC50 [7] | IC50 [8] | IC50 ([1]; Inhibitor specificity table, read-out: Human Kallikrein IC50) | Structure (SMILES) |
| --- | --- | --- | --- | --- | --- | --- | --- | --- | --- |
| 0.0242 µM | > 17.9 µM | > 7 µM | > 5.4 µM | > 100 µM | > 100 µM | > 100 µM | > 100 µM |  | CCCCCCC(=O)N[C@H]1CSCc2cccc(c2)CSC[C@@H](C(=O)N[C@@H](CCCNC(=N)N)C(=O)N[C@H](C(N)=O)C(C)C)NC(=O)[C@H]([C@@H](C)CC)NC(=O)[C@H](CO)NC(=O)[C@H](CCC(=O)O)NC1=O [Compound R2041, [mXylyl(1,5)]Heptanoyl-CESICRV-NH2] (Heptanoyl-CESICRV-NH2; linker 1-5 via mXylylene) |
| 0.019 µM | > 100 µM | > 7 µM | > 12.1 µM | > 100 µM | > 100 µM | > 100 µM | > 100 µM |  | CC[C@H](C)[C@@H]1NC(=O)[C@H](CO)NC(=O)[C@H](CCC(=O)O)NC(=O)[C@@H](NC(C)=O)CSCc2cccc(c2)CSC[C@@H](C(=O)N[C@@H](CCCNC(=N)N)C(=O)N[C@H](C(N)=O)C(C)C)NC1=O [Compound R2023, [mXylyl(1,5)]Ac-CESICRV-NH2] (Ac-CESICRV-NH2; linker 1-5 via mXylylene) |
| 0.0129 µM | > 100 µM | > 100 µM | > 8.3 µM | > 100 µM | > 100 µM | > 100 µM | > 100 µM |  | CC[C@H](C)[C@@H]1NC(=O)[C@H](CO)NC(=O)[C@H](CCC(=O)O)NC(=O)CCSCc2cccc(c2)CSC[C@@H](C(=O)N[C@@H](CCCNC(=N)N)C(=O)N[C@H](C(N)=O)C(C)C)NC1=O [Compound R2051, [mXylyl(1,5)](des-NH2)C-ESICRV-NH2] ([Mpa]ESICRV-NH2; linker 1-5 via mXylylene) |
|  | > 100 µM | > 7 µM | > 11.6 µM | > 100 µM | > 100 µM | > 100 µM | > 100 µM | 0.025 µM | CC[C@H](C)[C@@H]1NC(=O)[C@H](CO)NC(=O)[C@H](CCC(=O)O)NC(=O)[C@@H](NC(=O)[C@@H](N)CCSC)CSCc2cccc(c2)CSC[C@@H](C(=O)N[C@@H](CCCNC(=N)N)C(=O)N[C@H](C(N)=O)C(C)C)NC1=O [Compound R2006, [mXylyl(2,6)]MCESICRV-NH2] (H-MCESICRV-NH2; linker 2-6 via mXylylene) |
| 0.0064 µM | > 100 µM | > 7 µM | > 4.8 µM | > 100 µM | > 100 µM | > 100 µM | > 19.5 µM |  | CC(=O)N[C@H]1CSCc2cccc(c2)CSC[C@@H](C(=O)N[C@@H](CCCNC(=N)N)C(=O)N[C@H](C(N)=O)C(C)(C)C)NC(=O)[C@H](c2ccccc2)NC(=O)[C@H](CO)NC(=O)[C@H](C)NC1=O [Compound R2036, [mXylyl(1,5)]Ac-CAS-Phg-CR-Tbg-NH2] (Ac-CAS[Phg]CR[Tle]-NH2; linker 1-5 via mXylylene) |
| 0.025 µM | > 100 µM | > 100 µM | > 10.4 µM | > 100 µM | > 100 µM | > 100 µM | > 100 µM |  | CCC[C@H](N)C(=O)N[C@H]1CSCc2cccc(c2)CSC[C@@H](C(=O)N[C@@H](CCCNC(=N)N)C(=O)N[C@H](C(N)=O)C(C)(C)C)NC(=O)[C@H](c2ccccc2)NC(=O)[C@@H]2CCCN2C(=O)[C@H](CCC(=O)O)NC1=O [Compound R2030, [mXylyl(2,6)]Nvl-CEP-Phg-CR-Tbg-NH2] (H-[Nva]CEP[Phg]CR[Tle]-NH2; linker 2-6 via mXylylene) |
| 0.0523 µM | > 100 µM | > 10 µM | > 9.1 µM | > 12.5 µM | > 16.4 µM | > 100 µM | > 21 µM |  | CC[C@H](C)[C@@H]1NC(=O)[C@H](CO)N(C)C(=O)[C@H](CCC(=O)O)NC(=O)[C@@H](NC(=O)[C@@H](N)CCSC)CSCc2cccc(c2)CSC[C@@H](C(=O)N[C@@H](CCCNC(=N)N)C(=O)N[C@H](C(N)=O)C(C)C)NC1=O [Compound R2019, [mXylyl(2,6)]MCE-nMeS-ICRV-NH2] (H-MCE[NMeS]ICRV-NH2; linker 2-6 via mXylylene; N-terminus assumed) |
